According to patent US12569170B2, “Paramagnetic sodium NMR macrocyclic-based biosensors, and associated methods” (Yale University, priority 2021, dated 2026):
Entries after “also recorded” stand apart in the source; their conditions may differ.

Tested on: U87-bearing rat brain
Experiment: In vivo ^23Na-MRSI line broadening in glioma models
Settings: glioma models, after agent infusion
From the text: FIGS. 10C-10F illustrates images according to certain embodiments of the disclosure. […] However, the ^23Na linewidth analysis by TmDOTP^5− is confounded by its high ^23Na shiftability. This peak separation in vivo overestimates the full-width at half-maximum (FWHM) calculations and exaggerates the measured ^23Na linewidths.
Slice 1 is most superficial, and slice 3 is the deepest. The tumor outline is depicted in white in all columns.
This establishes GdDOTP^5−-induced ^23Na linewidth broadening as a potential surrogate marker for the altered Na^+ biodistribution within tumors. Thus, in brain tumor models, TmDOTP^5− with ^23Na-NMR can separate Na^+ in intracellular, blood, and interstitial pools, while GdDOTP^5− can distinguish Na^+ within intracellular and extracellular (i.e., blood and interstitial) pools.
Because the majority of the present studies looked at ^23Na chemical shift, the line broadening capabilities of these paramagnetic agents were also interrogated. […] This is due to the high magnetic moment of Gd^3+ which contributes to some degree of anisotropy to the paramagnetic susceptibility. […] Crucially, this family of paramagnetic agents has allowed to insightful probing of the tumor microenvironment and drawing of significant conclusions about tumor aggressiveness based on spectroscopic analysis.

O=P([O-])([O-])CN1CCN(CP(=O)([O-])[O-])CCN(CP(=O)([O-])[O-])CCN(CP(=O)([O-])[O-])CC1.[Na+].[Na+].[Na+].[Na+].[Na+].[Tm+3] [TmDOTP^5−, sodium thulium (III) 1,4,7,10-tetraazacyclododecane-1,4,7,10-tetrakis(methylenephosphonate)]
^23Na line broadening in tumor versus normal tissue: most prominent within the tumor; also recorded: substantial ^23Na line broadening within tumor models compared to normal tissue
